From patent publication US9682995B2, “Amino-substituted isothiazoles” (BAYER PHARMA AKTIENGESELLSCHAFT, priority 2013, dated 2017) come the findings set out here.

One assay deals with HeLa. The assay is described as follows: Proliferation assay (crystal violet), HeLa. The class given is cell-based. Conditions: Homo sapiens, 96 h, 4 days, read-out: Inhibition of proliferation IC50 HeLa. The method, boiled down: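 Tumour cells seeded at 1000–5000 cells/well in medium with 10% FCS, dosed after 24 h at 0.001–10 μM (0.5% DMSO final) for 4 days. Cell number read by crystal-violet staining after glutaraldehyde fixation (A595), normalised to zero-point plate (0%) and untreated cells (100%); IC50 from 4-parameter fit.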

The next assay deals with human Bub1 (Homo sapiens (Human), UniProt O43683). The assay is described as follows: Bub1 kinase assay (TR-FRET). The class given is biochemical. Conditions: 10 μM ATP; read-out: Bub1 avg (IC50 [mol/l]). The method, boiled down:
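His6-tagged human Bub1 catalytic domain (aa 704-1085, insect-cell expressed, ~200 ng/ml) preincubated with compound 15 min, then reacted 60 min at 22 °C with 10 μM ATP and 1 μM biotinylated peptide (final) in pH 7.5 Tris buffer. Phosphopeptide detected by TR-FRET 665/620 ratio, normalised to no-inhibitor and no-enzyme controls.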

Chain of human Bub1 (O43683 704-1085): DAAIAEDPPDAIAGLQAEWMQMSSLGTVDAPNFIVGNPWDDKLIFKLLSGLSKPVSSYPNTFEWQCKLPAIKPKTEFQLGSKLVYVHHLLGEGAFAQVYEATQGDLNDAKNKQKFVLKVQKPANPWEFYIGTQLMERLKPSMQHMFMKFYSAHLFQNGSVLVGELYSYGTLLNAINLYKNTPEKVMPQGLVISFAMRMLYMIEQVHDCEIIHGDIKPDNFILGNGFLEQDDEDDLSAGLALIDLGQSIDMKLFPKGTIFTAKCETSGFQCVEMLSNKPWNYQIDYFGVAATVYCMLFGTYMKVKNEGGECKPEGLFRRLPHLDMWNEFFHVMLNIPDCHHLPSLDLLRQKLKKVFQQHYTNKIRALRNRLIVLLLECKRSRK

Turning to `CCc1ccccc1NC(=O)c1c(C)nsc1Nc1nccc(-c2ccccc2)n1` [Example 5, N-(2-Ethylphenyl)-3-methyl-5-[(4-phenylpyrimidin-2-yl)amino]-1,2-thiazole-4-carboxamide], the IC50 in the assay with HeLa was over 10 µM; at human Bub1 it was over 20 µM.

As for `COc1ccc(NC(=O)c2c(C)nsc2Nc2cncc(C(F)(F)F)n2)cn1` [Example 84, N-(6-methoxypyridin-3-yl)-3-methyl-5-{[6-(trifluoromethyl)pyrazin-2-yl]amino}-1,2-thiazole-4-carboxamide], the figures for the IC50 in the assay with HeLa and on human Bub1 were 0.29 µM and over 20 µM, respectively.

As to `CCc1ccccc1NC(=O)c1c(C)nsc1Nc1nc(C(=O)OC)co1` [Example 91, Methyl 2-({4-[(2-ethylphenyl)carbamoyl]-3-methyl-1,2-thiazol-5-yl}amino)-1,3-oxazole-4-carboxylate], the IC50 was 9.7 µM with HeLa and over 20 µM on human Bub1.

For the compound `Cc1nsc(Nc2cncc(-n3cccn3)n2)c1C(=O)Nc1ccc(Cl)c(F)c1` [Example 67, N-(4-Chloro-3-fluorophenyl)-3-methyl-5-{[6-(1H-pyrazol-1-yl)pyrazin-2-yl]amino}-1,2-thiazole-4-carboxamide], the figures for the IC50 with HeLa and at human Bub1 were 0.77 µM and over 20 µM, respectively.

Consider `CCNC(=O)c1cncc(Nc2snc(C)c2C(=O)Nc2ccc(F)c(F)c2)n1` [Example 73, 6-({4-[(3,4-Difluorophenyl)carbamoyl]-3-methyl-1,2-thiazol-5-yl}amino)-N-ethylpyrazine-2-carboxamide], for which the IC50 worked out at 1.2 µM in the assay with HeLa and 6.2 µM at human Bub1.

With `Cc1nsc(Nc2cnc3cc(C(F)(F)F)ccc3n2)c1C(=O)Nc1ccc(Cl)c(F)c1` [Example 68, N-(4-Chloro-3-fluorophenyl)-3-methyl-5-{[6-(trifluoromethyl)quinoxalin-2-yl]amino}-1,2-thiazole-4-carboxamide], the IC50 in the assay with HeLa is 1 µM; at human Bub1, over 20 µM.

Regarding `Cc1nsc(Nc2ccc(C#N)cn2)c1C(=O)Nc1ccc(Cl)c(Cl)c1` [Example 62, 5-[(5-Cyanopyridin-2-yl)amino]-N-(3,4-dichlorophenyl)-3-methyl-1,2-thiazole-4-carboxamide], the IC50 in the assay on HeLa was 0.42 µM; at human Bub1, over 20 µM.

For `CCNc1cncc(Nc2snc(C)c2C(=O)Nc2ccc(F)c(F)c2)n1` [Example 78, N-(3,4-Difluorophenyl)-5-{[6-(ethylamino)pyrazin-2-yl]amino}-3-methyl-1,2-thiazole-4-carboxamide], the IC50 in the assay on HeLa was 2.5 µM; on human Bub1, over 20 µM.

Take `Cc1cncc(Nc2snc(C)c2C(=O)Nc2ccc(F)c(F)c2)n1` [Example 69]: the results for the IC50 in the assay on HeLa and at human Bub1 were 7 µM and over 20 µM, respectively.

As to `Cc1nsc(Nc2cnc(Cl)cn2)c1C(=O)Nc1ccc(F)c(F)c1` [Example 74, 5-[(5-Chloropyrazin-2-yl)amino]-N-(3,4-difluorophenyl)-3-methyl-1,2-thiazole-4-carboxamide], the IC50 was 0.26 µM in the assay on HeLa and over 20 µM at human Bub1.

Turning to `COc1ccc(NC(=O)c2c(C)nsc2Nc2nc3cccnc3s2)cn1` [Example 89, N-(6-Methoxypyridin-3-yl)-3-methyl-5-([1,3]thiazolo[5,4-b]pyridin-2-ylamino)-1,2-thiazole-4-carboxamide], the values for the IC50 in the assay on HeLa and on human Bub1 were 3.6 µM and 0.21 µM, respectively.

Regarding `COc1ccc2nc(Nc3snc(C)c3C(=O)Nc3ccc(OC)nc3)sc2c1` [Example 87, 5-[(6-Methoxy-1,3-benzothiazol-2-yl)amino]-N-(6-methoxypyridin-3-yl)-3-methyl-1,2-thiazole-4-carboxamide], the IC50 in the assay on HeLa was found to be 2.8 µM; on human Bub1, 11 µM.
